Laboratory results published in US12098144B2, “Piperazine indazole glucocorticoid receptor antagonists” (Corcept Therapeutics Incorporated, priority 2021, dated 2024).

Assays:
glucocorticoid receptor [1] = molecular target: T1, glucocorticoid receptor (Homo sapiens, UniProt P04150); assay: Hep G2 TAT IC50: inhibition of dexamethasone-induced TAT in HepG2 cells (384 well); format: cell-based
T1 construct: endogenous in cells; ATCC cat
T1 sequence (P04150 1-777): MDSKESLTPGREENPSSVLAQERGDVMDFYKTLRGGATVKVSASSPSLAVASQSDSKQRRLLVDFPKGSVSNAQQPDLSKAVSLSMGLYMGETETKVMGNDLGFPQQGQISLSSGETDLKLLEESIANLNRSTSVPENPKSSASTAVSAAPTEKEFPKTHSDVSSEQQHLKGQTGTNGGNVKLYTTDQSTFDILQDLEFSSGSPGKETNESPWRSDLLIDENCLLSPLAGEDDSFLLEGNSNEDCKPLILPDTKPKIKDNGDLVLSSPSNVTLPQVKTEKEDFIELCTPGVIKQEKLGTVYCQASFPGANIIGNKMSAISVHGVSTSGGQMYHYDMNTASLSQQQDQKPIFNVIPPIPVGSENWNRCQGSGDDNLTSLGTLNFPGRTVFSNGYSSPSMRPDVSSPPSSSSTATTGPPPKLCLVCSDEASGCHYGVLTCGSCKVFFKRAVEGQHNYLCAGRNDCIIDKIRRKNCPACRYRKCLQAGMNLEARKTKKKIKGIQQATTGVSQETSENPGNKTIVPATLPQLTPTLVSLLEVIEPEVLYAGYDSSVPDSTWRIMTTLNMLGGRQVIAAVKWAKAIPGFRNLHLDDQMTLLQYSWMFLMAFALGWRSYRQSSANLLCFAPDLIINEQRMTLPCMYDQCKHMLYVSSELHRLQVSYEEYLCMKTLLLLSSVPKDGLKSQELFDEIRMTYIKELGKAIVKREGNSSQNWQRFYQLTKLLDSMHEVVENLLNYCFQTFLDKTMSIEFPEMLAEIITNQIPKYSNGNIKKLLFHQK
Experimental: Glucocorticoid mediated activation of TAT occurs by transactivation of glucocorticoid response elements in the TAT promoter by glucocorticoid receptor/agonist complex.
HepG2 cells were cultured using MEME media supplemented with 10% (v/v) foetal bovine serum, 2 mM L-glutamine, 1% (v/v) NEAA, and 1% (v/v) penstrep, at 37° C., 5%/95% (v/v) CO2/air.
Compounds were diluted from a 10 mM stock via an Echo Acoustic liquid handler into 10 μL assay media to generate a 10-point half-log dilution curve.
HepG2 cells were then lysed with 8 μL of cell lysis buffer containing a protease inhibitor cocktail for 15 minutes at 25° C. […] After a 2-hour incubation at 37° C. the reaction was terminated by the addition of 8 μL of 5 M aqueous potassium hydroxide solution, and the plates incubated for a further 30 minutes at 37° C.
[compound] and fitting the data to a 4-parameter logistic equation.

glucocorticoid receptor [2] = molecular target: T1, glucocorticoid receptor; assay: Hep G2 TAT Ki: inhibition of dexamethasone-induced TAT in HepG2 cells (96 well); format: cell-based; details: challenge of 100 nM dexamethasone, IC50 converted to Ki by Cheng and Prusoff equation
In short: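 Cells lysed 15 min at 4 °C; TAT enzyme reaction 2 h at 37 °C, stopped with KOH, 30 min further at 37 °C. Inhibition fitted to 4-parameter logistic.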

SMILES	IC50 (glucocorticoid receptor [1]) [nM]	Ki (glucocorticoid receptor [2]) [nM]
Cc1cc2c(cnn2-c2cccc(C(F)F)c2)cc1C1CN(S(=O)(=O)c2cnn(C)n2)CCN1CCC(F)(F)F (stereo not shown) [Example 201, 1-(3-(difluoromethyl)phenyl)-6-methyl-5-(4-(2-methyltriazol-4-yl)sulfonyl-1-(3,3,3-trifluoropropyl)piperazin-2-yl)indazole]	3850	–
Cc1cc2c(cnn2-c2ccc(F)cc2)cc1C1CN(S(=O)(=O)N2CCOCC2)CCN1CCC(F)(F)F (single isomer, unassigned) [Example 177, 4-(3-(1-(4-fluorophenyl)-6-methyl-indazol-5-yl)-4-(3,3,3-trifluoropropyl)piperazin-1-yl)sulfonylmorpholine]	2460	–
Cc1cc2c(cnn2-c2ccc(F)cc2)cc1C1CN(S(=O)(=O)N(C)C)CCN1CC1CC(F)(F)C1 (single isomer, unassigned) [Example 183, 4-((3,3-difluorocyclobutyl)methyl)-3-(1-(4-fluorophenyl)-6-methyl-indazol-5-yl)-N,N-dimethyl-piperazine-1-sulfonamide]	2660	–
Cc1nc(S(=O)(=O)N2CCN(CC3CCC3)C(c3cc4cnn(-c5ccc(F)cc5)c4cc3C)C2)cs1 (single isomer, unassigned) [Example 184, 4-(4-(cyclobutylmethyl)-3-(1-(4-fluorophenyl)-6-methyl-indazol-5-yl)piperazin-1-yl)sulfonyl-2-methyl-thiazole]	1160	–
O=S(=O)(N1CCOCC1)N1CCN(CCC(F)(F)F)C(c2cc3cnn(-c4ccc(F)cc4)c3cc2Cl)C1 (stereo not shown) [Example 210, 4-(3-(6-chloro-1-(4-fluorophenyl)indazol-5-yl)-4-(3,3,3-trifluoropropyl)piperazin-1-yl)sulfonylmorpholine]	2540	–
Cc1nc(S(=O)(=O)N2CCN(CC3CC(C)(C)C3)C(c3cc4cnn(-c5ccc(F)cc5)c4cc3C)C2)cs1 (single isomer, unassigned) [Example 185, 4-(4-((3,3-dimethylcyclobutyl)methyl)-3-(1-(4-fluorophenyl)-6-methyl-indazol-5-yl)piperazin-1-yl)sulfonyl-2-methyl-thiazole]	1220	–
Cc1ncc(S(=O)(=O)N2CCN(CC3CCCC3)C(c3cc4cnn(-c5ccc(F)cc5)c4cc3C)C2)s1 (single isomer, unassigned) [Example 187, 5-(4-(cyclopentylmethyl)-3-(1-(4-fluorophenyl)-6-methyl-indazol-5-yl)piperazin-1-yl)sulfonyl-2-methyl-thiazole]	1660	–
Cc1cc2c(cnn2-c2ccc(F)cc2)cc1C1CN(S(=O)(=O)N2CCOCC2)CCN1CCc1ccccc1 (single isomer, unassigned) [Example 215, 4-(3-(1-(4-fluorophenyl)-6-methyl-indazol-5-yl)-4-(2-phenylethyl)piperazin-1-yl)sulfonylmorpholine]	3980	–
COc1cc2c(cnn2-c2ccc(F)cc2)cc1C1CN(S(=O)(=O)c2csc(C)n2)CCN1CCC(F)(F)F (stereo not shown) [Example 188, 4-(3-(1-(4-fluorophenyl)-6-methoxy-indazol-5-yl)-4-(3,3,3-trifluoropropyl)piperazin-1-yl)sulfonyl-2-methyl-thiazole]	1320	–
COc1cc2c(cnn2-c2ccc(F)cc2)cc1C1CN(S(=O)(=O)c2csc(C)n2)CCN1CC1CCCC1 (stereo not shown) [Example 189, 4-(4-(cyclopentylmethyl)-3-(1-(4-fluorophenyl)-6-methoxy-indazol-5-yl)piperazin-1-yl)sulfonyl-2-methyl-thiazole]	1660	–
Cc1ncc(S(=O)(=O)N2CCCN(CCC(F)(F)F)C(c3cc4cnn(-c5ccc(F)cc5)c4cc3C)C2)s1 (stereo not shown) [Example 191, 5-((3-(1-(4-fluorophenyl)-6-methyl-indazol-5-yl)-4-(3,3,3-trifluoropropyl)-1,4-diazepan-1-yl)sulfonyl)-2-methyl-thiazole]	4030	–
Cc1cc2c(cnn2-c2ccc(F)cc2)cc1C1CN(S(=O)(=O)CC2CC2)CCN1CC(C)C (single isomer, unassigned) [Example 51, 5-(4-((cyclopropylmethyl)sulfonyl)-1-isobutylpiperazin-2-yl)-1-(4-fluorophenyl)-6-methyl-1H-indazole]	–	28
CC[C@@H](C)N1CCN(S(=O)(=O)c2cnn(C)n2)C[C@@H]1c1cc2cnn(-c3ccc(F)cc3)c2cc1C (stereo in doubt) [Example 122, 5-(1-(sec-butyl)-4-((2-methyl-2H-1,2,3-triazol-4-yl)sulfonyl)piperazin-2-yl)-1-(4-fluorophenyl)-6-methyl-1H-indazole]	–	110
Cc1cc2c(cnn2-c2ccc(F)cc2)cc1C1CN(S(=O)(=O)c2cnn(C)n2)CCN1CC(C)C(F)(F)F (single isomer, unassigned) [Example 33]	–	11
Cc1cc2c(cnn2-c2ccc(F)cc2)cc1C1CN(S(=O)(=O)c2conc2C)CCN1CC(C)C (single isomer, unassigned) [Example 56, 4-((3-(1-(4-fluorophenyl)-6-methyl-1H-indazol-5-yl)-4-isobutylpiperazin-1-yl)sulfonyl)-3-methylisoxazole]	–	65

Results, then the compound that gave them:

IC50 (glucocorticoid receptor [1]) [nM]	Ki (glucocorticoid receptor [2]) [nM]	SMILES
3130	–	CN(C)S(=O)(=O)N1CCN(CCC(F)(F)F)C(c2cc3cnn(-c4ccc(F)cc4)c3cc2Cl)C1 (stereo not shown) [Example 209, 3-(6-chloro-1-(4-fluorophenyl)indazol-5-yl)-N,N-dimethyl-4-(3,3,3-trifluoropropyl)piperazine-1-sulfonamide]
1000	–	Cc1cc2c(cnn2-c2ccc(=O)n(C)c2)cc1C1CN(S(=O)(=O)c2cccnc2)CCN1CCC(F)(F)F (stereo not shown) [Example 197, 1-methyl-5-(6-methyl-5-(4-(3-pyridylsulfonyl)-1-(3,3,3-trifluoropropyl)piperazin-2-yl)indazol-1-yl)pyridin-2-one]
1240	–	Cc1cc2c(cnn2-c2cc(C)c(=O)n(C)n2)cc1C1CN(S(=O)(=O)c2cnn(C)n2)CCN1CCC(F)(F)F (stereo not shown) [Example 175, 2,4-dimethyl-6-(6-methyl-5-(4-(2-methyltriazol-4-yl)sulfonyl-1-(3,3,3-trifluoropropyl)piperazin-2-yl)indazol-1-yl)pyridazin-3-one]
1280	–	Cc1cc2c(cnn2-c2ccc(=O)n(C)c2)cc1C1CN(S(=O)(=O)N2CCOCC2)CCN1CCC(F)(F)F (stereo not shown) [Example 198, 1-methyl-5-(6-methyl-5-(4-morpholinosulfonyl-1-(3,3,3-trifluoropropyl)piperazin-2-yl)indazol-1-yl)pyridin-2-one]
1320	–	Cc1cc2c(cnn2-c2ccccc2)cc1C1CN(S(=O)(=O)c2cnn(C)n2)CCN1CCC(F)(F)F (stereo not shown) [Example 199, 6-methyl-5-(4-(2-methyltriazol-4-yl)sulfonyl-1-(3,3,3-trifluoropropyl)piperazin-2-yl)-1-phenyl-indazole]
4010	–	Cc1cccc(-n2ncc3cc(C4CN(S(=O)(=O)c5cnn(C)n5)CCN4CCC(F)(F)F)c(C)cc32)c1 (stereo not shown) [Example 200, 6-methyl-5-(4-(2-methyltriazol-4-yl)sulfonyl-1-(3,3,3-trifluoropropyl)piperazin-2-yl)-1-(m-tolyl)indazole]
589	–	Cc1cc(-n2ncc3cc(C4CN(S(=O)(=O)N5CCOCC5)CCN4CCC(F)(F)F)c(Cl)cc32)cn(C)c1=O (stereo not shown) [Example 211, 5-(6-chloro-5-(4-morpholinosulfonyl-1-(3,3,3-trifluoropropyl)piperazin-2-yl)indazol-1-yl)-1,3-dimethyl-pyridin-2-one]
1440	–	COc1cc2c(cnn2-c2ccc(F)cc2)cc1C1CN(S(=O)(=O)N(C)C)CCN1CCC(F)(F)F (stereo not shown) [Example 212, 3-(1-(4-fluorophenyl)-6-methoxy-indazol-5-yl)-N,N-dimethyl-4-(3,3,3-trifluoropropyl)piperazine-1-sulfonamide]
1660	–	Cc1cc2c(cnn2-c2ccc(F)cc2)cc1C1CN(S(=O)(=O)N(C)C)CCN1CCC(F)(F)F (single isomer, unassigned) [Example 181, 3-(1-(4-fluorophenyl)-6-methyl-indazol-5-yl)-N,N-dimethyl-4-(3,3,3-trifluoropropyl)piperazine-1-sulfonamide]
284	–	Cc1cc2c(cnn2-c2cc(C)c(=O)n(C)c2)cc1C1CN(S(=O)(=O)N(C)C)CCN1CCC(F)(F)F (stereo not shown) [Example 196, 3-(1-(1,5-dimethyl-6-oxo-3-pyridyl)-6-methyl-indazol-5-yl)-N,N-dimethyl-4-(3,3,3-trifluoropropyl)piperazine-1-sulfonamide]
